{"source": "paper PMC2653189", "about": "(PLoS ONE, 2009)", "system": "IFN-γ-mediated Stat1 phosphorylation", "experiment": "Immunoblot of IFN-γ-mediated Stat1 phosphorylation in HepG2 cells", "assay_type": "cell-based, human", "details": "compound 300 µM 1 hour, IFN-γ 30 ng/ml 30 min", "experimental": "The human hepatocellular carcinoma cell line (HepG2) was grown in 6-well plates under standard conditions. Cells were pretreated with compounds (0, 1, 3, 10, 30, 100 and 300 µM) for 1 hour then stimulated under optimal conditions with either interleukin-6 (IL-6; 30 ng/ml for 30 min) to activate Stat3 or interferon gamma (IFN-γ; 30 ng/ml for 30 min) to activate Stat1 [28]. Cultures were then harvested and proteins extracted using high-salt buffer, as described. Briefly, extracts were mixed with 2× sodium dodecyl sulfate (SDS) sample buffer (125 mM Tris-HCL pH 6.8; 4% SDS; 20% glycerol; 10% 2-mercaptoethanol) at a 1∶1 ratio and heated for 5 minutes at 100°C. Proteins (20 µg) were separated by 7.5% SDS-PAGE and transferred to polyvinylidene fluoride (PVDF) membrane (Millipore, Waltham, MA) and immunoblotted. Prestained molecular weight markers (BioRad; Hercules, CA) were included in each gel. Membranes were probed serially with antibody against Stat1 pY701 or Stat3 pY705 followed by antibody against Stat1 or Stat3 (Transduction labs, Lexington, KY) then antibody against β–actin (Abcam, Cambridge, MA). Membranes were stripped between antibody probing using Restore™ Western Blot Stripping Buffer (Thermo Fisher Scientific Inc., Waltham, MA) per the manufacturer's instructions. Horseradish peroxidase-conjugated goat-anti-mouse IgG was used as the secondary antibody (Invitrogen Carlsbad, CA) and the membranes were developed with enhanced chemiluminescence (ECL) detection system (Amersham Life Sciences Inc.; Arlington Heights, IL.).\nFigure 2 Effect of compounds on ligand-mediated Stat3 and Stat1 phosphorylation. […] Cells were then stimulated with IL-6 (30 ng/ml) for 30 min. Protein extracts of cells were separated by SDS-PAGE, blotted and developed serially with antibodies to pStat3, total Stat3 and β-actin. Blots were stripped between each antibody probing. Band intensities were quantified by densitometry. The value of each pStat3 band was divided by its corresponding total Stat3 band intensity; the results were normalized to the DMSO-treated control value. This value was plotted as a function of the log compound concentration. The best-fitting curve was determined using 4-Parameter Logistic Model/Dose Response/XLfit 4.2, IDBS software and was used to calculate the IC50 value (Table 1). Each panel is representative of 3 or more experiments. In panel G, HepG2 cells were pretreated with DMSO alone or DMSO containing each of the compounds at a concentration of 300 µM for 60 min. Cells were then stimulated with IFN-γ (30 ng/ml) for 30 min. Protein extracts of cells were separated by SDS-PAGE and immunoblotted serially with antibodies to pStat1, total Stat1 and β-actin. Blots were stripped between each immunoblotting. The results shown are representative of 2 or more experiments.", "data": [{"smiles": "O=C(O)c1ccc(C=CC(=O)c2ccc3c(c2)OCCO3)cc1", "note": "[Cpd3, 4-[3-(2,3-dihydro-1,4-benzodioxin-6-yl)-3-oxo-1-propen-1-yl]benzoic acid]", "values": [{"measurement": "Block of IFN-γ-stimulated Stat1 phosphorylation", "result": "did not"}]}]}
